These are literature values, as cited in patent EP3958980B1, “TARGETED NOVEL TRIAZOLOTHIADIAZINE DERIVATIVES FOR THE TREATMENT OF LUNG CANCER” (Anadolu Universitesi, priority 2020, dated 2021).

The subject of data set [1] is kidney cancer (OU-31) cell line. The arrangement: concentration or dose not given beside the values. The note with it: cited from earlier work.
The subject of data set [2] is leukemia (MOLT-4) cell line. Particulars: cited from earlier work.
The subject of data set [3] is 60 cell lines formed of leukemia, NSCLC, melanoma, prostate, ovarian and breast cancers. The note with it: against all cancer cells; cited from earlier work.
For data set [4], the system named is kidney fibroblast (BHK-21) and lung carcinoma (H-157) cell lines. Particulars: highest cytotoxic activity; cell line not stated; cited from earlier work.
A further data set relates to lung cancer (H157) cells. The note with it: cited from earlier work.
Data set [5] concerns human colon epithelial (HT-29) cells. The note with it: cited from earlier work.
Data set [6] relates to kidney fibroblast (BHK-21) cells. The note with it: cited from earlier work.

For `O=C(CSc1nnc2n1N=C(c1ccc(Cl)cc1)CS2)c1ccc(F)cc1` [2-((6-(4-Chlorophenyl)-7H-[1,2,4]triazolo[3,4-b][1,3,4]thiadiazine-3-yl)thio-1-(4-fluorophenyl)ethanone], the growth was 48.14% in data set [1] and 49.82% in data set [2]. `Fc1cc(-c2nnc3n2N=C(c2ccc(Cl)cc2)CS3)c(Cl)cc1Cl` [3-(2,4-Dichloro-5-fluorophenyl)-6-(4-chlorophenyl)-1,2,4-triazolo[3,4-b]-1,3,4-thiadiazine]: the GI50 (usually the concentration at which growth is held to half of that of the control) in data set [3] is 1060 to 25400 nM. For `O=c1oc2ccccc2cc1-c1nnc2n1N=C(c1ccc(-c3ccccc3)cc1)CS2` [3-(6-(Biphenyl-4-yl)-7H-[1,2,4]triazolo[3,4-b][1,3,4]-thiadiazine-3-yl)-2H-chromene-2-one], the IC50 (usually the concentration at which inhibition is half-maximal) in data set [4] was 1010 ± 120 nM. Turning to `Clc1ccc(C2=Nn3c(nnc3-c3cccnc3)SC2)cc1Cl` [6-(3,4-Dichlorophenyl)-3-(pyridine-3-yl)-7H-[1,2,4]triazolo[3,4-b][1,3,4]thiadiazine], the IC50 in the data set with lung cancer (H157) cells was 960 ± 430 nM. Regarding `CS(=O)(=O)c1ccc(Cc2nnc3n2N=C(c2ccc(-c4ccccc4)cc2)CS3)cc1` [6-(biphenyl-4-yl)-3-(4-(methylsulfonyl)benzyl)-7H-[1,2,4]triazolo[3,4-b][1,3,4]thiadiazine], in data set [5], the IC50 was 12500 nM. As to `CC[C@]1(O)C[C@H]2CN(CCc3c([nH]c4ccccc34)[C@@](C(=O)OC)(c3cc4c(cc3OC)N(C=O)[C@H]3[C@@](O)(C(=O)OC)[C@H](OC(C)=O)[C@]5(CC)C=CCN6CC[C@]43[C@@H]65)C2)C1` [vincristine], the IC50 in the data set with lung cancer (H157) cells is 1030 ± 40 nM. Also, in data set [6], the inhibition (usually the percentage by which the read-out fell short of the control) is recorded as 74.5%.
